According to US8173709B2, “Anti-infective methods for treating pathogen-induced disordered tissues” (priority 1999, dated 2012):
Entries after “also recorded” stand apart in the source; their conditions may differ. Where two headings read alike, the source gives them in different places.

Assays:
[1] = test system: Vaccinia virus (WR strain); design: species or system mice; details: mouse, in vivo
vaccinia virus = type: in vivo, mice; details: more vigorous rubbing in; treatment continued until death
[2] = test system: Vaccinia virus (WR strain); design: species or system mice; details: mouse, in vivo; remark: listed apart in the source

For benzalkonium chloride, the Survivors/Total [1] was 0/10, the protection from death [1] was “No protection from death” and the “benefit in terms of survival or suppressing lesion severity” value (vaccinia virus) was “no benefit”. The Survivors/Total [2] was 0/10, the “mean day of death / survival time compared to water” value [2] was “longer than those respective groups treated with water, but the results were not statistically significant; also recorded: slightly longer survival times” and the protection from death [2] was “No protection from death”.
